Measurements published in ChEMBL document CHEMBL5233281, “Design, synthesis and biological evaluation of novel 1,3,4,9-tetrahydropyrano[3,4-b]indoles as potential treatment of triple negative breast cancer by suppressing PI3K/AKT/mTOR pathway” (Bioorg Med Chem, 2021).
The source made the active and inactive calls. No cut-off for these calls is given here.

Tests used:
PC-3 = test: Antiproliferative activity against human PC-3 cells assessed as inhibition of cell growth incubated for 72 hrs by CCK8 assay; assay type: functional, cell-based; settings: PC-3, 72 h
MCF7 = test: Antiproliferative activity against human MCF7 cells assessed as inhibition of cell growth incubated for 72 hrs by CCK8 assay; assay type: functional, cell-based; settings: MCF7, 72 h
MDA-MB-231 [1] = test: Antiproliferative activity against human MDA-MB-231 cells assessed as inhibition of cell growth incubated for 72 hrs by CCK8 assay; assay type: functional, cell-based; settings: MDA-MB-231, 72 h
[2] = Antiproliferative activity against human MCF-10A cells assessed as inhibition of cell growth incubated for 72 hrs by CCK8 assay; assay type: toxicity, cell-based
[3] = Selectivity index, ratio of IC50 for antiproliferative activity against human MCF-10A cells to IC50 for antiproliferative activity against human MDA-MB-231 cells; assay type: toxicity, cell-based; settings: MCF-10A cells and MDA-MB-231 cells, read-out: Ratio IC50
MDA-MB-231 [4] = test: Induction of cell cycle arrest in human MDA-MB-231 cells assessed as accumulation of cells at G0/G1 phase at 1 uM incubated for 48 hrs by PI staining based flow cytometry (reference value: 48.33%); assay type: functional
MDA-MB-231 [5] = test: Induction of cell cycle arrest in human MDA-MB-231 cells assessed as accumulation of cells at G0/G1 phase at 4 uM incubated for 48 hrs by PI staining based flow cytometry (reference value: 48.33%); assay type: functional
MDA-MB-231 [6] = test: Induction of cell cycle arrest in human MDA-MB-231 cells assessed as downregulation of Cyclin D1 protein expression at 1 to 4 uM incubated for 48 hrs by western blot analysis; assay type: functional, cell-based; settings: dose 1-4 µM
MDA-MB-231 [7] = test: Induction of cell cycle arrest in human MDA-MB-231 cells assessed as upregulation of p21 protein expression at 1 to 4 uM incubated for 48 hrs by western blot analysis; assay type: functional, cell-based; settings: dose 1-4 µM
MDA-MB-231 [8] = test: Induction of apoptosis in human MDA-MB-231 cells assessed as increase in apoptotic cells at 1 uM incubated for 48 hrs by AnnexinV-FITC/PI staining based flow cytometry (reference value: 5.24%); assay type: functional
MDA-MB-231 [9] = test: Induction of apoptosis in human MDA-MB-231 cells assessed as increase in apoptotic cells at 2 uM incubated for 48 hrs by AnnexinV-FITC/PI staining based flow cytometry (reference value: 5.24%); assay type: functional
MDA-MB-231 [10] = test: Induction of apoptosis in human MDA-MB-231 cells assessed as increase in apoptotic cells at 4 uM incubated for 48 hrs by AnnexinV-FITC/PI staining based flow cytometry (reference value: 5.24%); assay type: functional
MDA-MB-231 [11] = test: Induction of apoptosis in human MDA-MB-231 cells assessed as increase in apoptotic cells at 2 uM incubated for 24 hrs by AnnexinV-FITC/PI staining based flow cytometry (reference value: 5.24%); assay type: functional
MDA-MB-231 [12] = test: Induction of apoptosis in human MDA-MB-231 cells assessed as increase in Bax protein expression measured after 48 hrs by western blot analysis; assay type: functional, cell-based; settings: dose 1-4 µM
MDA-MB-231 [13] = test: Induction of apoptosis in human MDA-MB-231 cells assessed as decrease in Bcl-2 protein expression measured after 48 hrs by western blot analysis; assay type: functional, cell-based; settings: dose 1-4 µM
MDA-MB-231 [14] = test: Induction of apoptosis in human MDA-MB-231 cells assessed as increase in cleaved caspase-9 protein expression at 1 to 4 uM incubated for 48 hrs by western blot analysis; assay type: functional, cell-based; settings: dose 1-4 µM
MDA-MB-231 [15] = test: Induction of apoptosis in human MDA-MB-231 cells assessed as increase in cleaved caspase-3 protein expression at 1 to 4 uM incubated for 48 hrs by western blot analysis; assay type: functional, cell-based; settings: dose 1-4 µM
MDA-MB-231 [16] = test: Induction of mitochondrial membrane potential depolarization in human MDA-MB-231 cells assessed as decrease in ratio of red to green fluorescence intensity at 1 to 4 uM incubated for 24 hrs by JC-1 staining based flow cytometry; assay type: functional, cell-based; settings: dose 1-4 µM
MDA-MB-231 [17] = test: Induction of reactive oxygen species generation in human MDA-MB-231 cells incubated for 24 hrs by DCFH-DA staining based flow cytometry; assay type: functional, cell-based; settings: dose 1-4 µM
MDA-MB-231 [18] = test: Induction of reactive oxygen species generation in human MDA-MB-231 cells at 1 uM incubated for 24 hrs by DCFH-DA staining based flow cytometry; assay type: functional, cell-based
MDA-MB-231 [19] = test: Induction of reactive oxygen species generation in human MDA-MB-231 cells at 2 uM incubated for 24 hrs by DCFH-DA staining based flow cytometry relative to control; assay type: functional
MDA-MB-231 [20] = test: Induction of reactive oxygen species generation in human MDA-MB-231 cells at 4 uM incubated for 24 hrs by DCFH-DA staining based flow cytometry; assay type: functional, cell-based
MDA-MB-231 [21] = test: Depletion of intracellular GSH content in human MDA-MB-231 cells at 2 uM incubated for 48 hrs relative to control; assay type: functional
MDA-MB-231 [22] = test: Increase in intracellular Ca2+ level in human MDA-MB-231 cells at 1 to 4 uM incubated for 48 hrs by Fluo-4AM dye based flow cytometry; assay type: functional, cell-based; settings: dose 1-4 µM
MDA-MB-231 [23] = test: Downregulation of PI3K protein expression in human MDA-MB-231 cells incubated for 48 hrs by western blot analysis; assay type: functional, cell-based; settings: dose 1-4 µM
MDA-MB-231 [24] = test: Downregulation of Akt protein expression in human MDA-MB-231 cells incubated for 48 hrs by western blot analysis; assay type: functional, cell-based; settings: dose 1-4 µM
MDA-MB-231 [25] = test: Downregulation of mTOR protein expression in human MDA-MB-231 cells incubated for 48 hrs by western blot analysis; assay type: functional, cell-based; settings: dose 1-4 µM
[26] = Inhibition of PI3K/Akt/mTOR signaling in human MDA-MB-231 cells assessed as reduction in mTOR phosphorylation at Ser2448 residue incubated for 48 hrs by western blot analysis; assay type: cell-based; settings: dose 1-4 µM
[27] = Inhibition of PI3K/Akt/mTOR signaling in human MDA-MB-231 cells assessed as reduction in mTOR phosphorylation at Ser2481 residue incubated for 48 hrs by western blot analysis; assay type: cell-based; settings: dose 1-4 µM
MDA-MB-231 [28] = test: Downregulation of PI3K protein expression in human MDA-MB-231 cells at 2 uM incubated for 72 hrs in presence of IGF-1 by western blot analysis; assay type: functional, cell-based
MDA-MB-231 [29] = test: Downregulation of Akt protein expression in human MDA-MB-231 cells at 2 uM incubated for 72 hrs in presence of IGF-1 by western blot analysis; assay type: functional, cell-based
MDA-MB-231 [30] = test: Downregulation of mTOR protein expression in human MDA-MB-231 cells at 2 uM incubated for 72 hrs in presence of IGF-1 by western blot analysis; assay type: functional, cell-based
[31] = Inhibition of PI3K/Akt/mTOR signaling in human MDA-MB-231 cells assessed as reduction in Akt phosphorylation at Ser473 residue at 2 uM incubated for 72 hrs in presence of IGF-1 by western blot analysis; assay type: cell-based
[32] = Inhibition of PI3K/Akt/mTOR signaling in human MDA-MB-231 cells assessed as reduction in mTOR phosphorylation at Ser2448 residue at 2 uM incubated for 72 hrs by western blot analysis; assay type: cell-based
[33] = Inhibition of PI3K/Akt/mTOR signaling in human MDA-MB-231 cells assessed as reduction in mTOR phosphorylation at Ser2481 residue at 2 uM incubated for 72 hrs by western blot analysis; assay type: cell-based
MDA-MB-231 [34] = test: Induction of apoptosis in human MDA-MB-231 cells assessed as increase in apoptotic cells at 2 uM incubated for 72 hrs in presence of IGF-1 by AnnexinV-FITC/PI staining based flow cytometry; assay type: functional

In the case of Fc1cc(F)cc(C2OCCc3c2[nH]c2ccccc32)c1 (stereo unspecified), the IC50 (PC-3) is reported as 9.04 µM, the IC50 (MCF7) is reported as 7.89 µM and the IC50 (MDA-MB-231 [1]) is reported as 2.29 µM. The IC50 at 72 h [2] was 24.6 µM, the selectivity ratio [3] was 10.8 and the Activity (MDA-MB-231 [4]) was 54.33%. The Activity (MDA-MB-231 [5]) was 66.67%, the Activity (MDA-MB-231 [6]) was “Active” and the Activity (MDA-MB-231 [7]) was “Active”. For the same compound, the Activity (MDA-MB-231 [8]) was 16.77%, the Activity (MDA-MB-231 [9]) was 22.17% and the Activity (MDA-MB-231 [10]) was 37.86%. For the same compound, the Activity (MDA-MB-231 [11]) was 13.14%, the Activity (MDA-MB-231 [12]) was “Dose-Dependent Effect” and the Activity (MDA-MB-231 [13]) was “Dose-Dependent Effect”. The Activity (MDA-MB-231 [14]) was “Active”, the Activity (MDA-MB-231 [15]) was “Active” and the Activity (MDA-MB-231 [16]) was “Active”. The Activity (MDA-MB-231 [17]) was “Dose-Dependent Effect”, the Activity (MDA-MB-231 [18]) was “inactive” and the “fold change (FC)” value (MDA-MB-231 [19]) was 1.73. The Activity (MDA-MB-231 [20]) was “Active”, the “fold change (FC)” value (MDA-MB-231 [21]) was 0.63 and the Activity (MDA-MB-231 [22]) was “Active”. For the same compound, the inhibition (MDA-MB-231 [23]) was “Dose-Dependent Effect”, the inhibition (MDA-MB-231 [24]) was “Dose-Dependent Effect” and the inhibition (MDA-MB-231 [25]) was “Dose-Dependent Effect”. For the same compound, the inhibition [26] was “Dose-Dependent Effect”, the inhibition [27] was “Dose-Dependent Effect” and the inhibition (MDA-MB-231 [28]) was “inactive”. The inhibition (MDA-MB-231 [29]) was “inactive”, the inhibition (MDA-MB-231 [30]) was “inactive” and the inhibition [31] was “inactive”. For the same compound, the inhibition [32] was “inactive”, the inhibition [33] was “inactive” and the Activity (MDA-MB-231 [34]) was 18.5%.
